Data on 27 compounds can be found in patent publication US8507533B2, “Glucagon receptor modulators” (Pfizer Inc., priority 2011, dated 2013).

Broadly, the Ki is the dissociation constant of the complex between target and ligand, obtained from inhibition or displacement. High values mean lower affinity, low ones higher affinity.

In assay [1] the target is T1, human glucagon receptor (Homo sapiens (Human), UniProt P47871). Kind of assay: Glucagon cAMP Assay (Cisbio cAMP detection). The assay is classed as cell-based. The note with it: CHOK1 cells stably transfected with the human glucagon receptor; block of glucagon induced cAMP production; Kb by modified Cheng-Prusoff equation.
T1 sequence (P47871 26-477): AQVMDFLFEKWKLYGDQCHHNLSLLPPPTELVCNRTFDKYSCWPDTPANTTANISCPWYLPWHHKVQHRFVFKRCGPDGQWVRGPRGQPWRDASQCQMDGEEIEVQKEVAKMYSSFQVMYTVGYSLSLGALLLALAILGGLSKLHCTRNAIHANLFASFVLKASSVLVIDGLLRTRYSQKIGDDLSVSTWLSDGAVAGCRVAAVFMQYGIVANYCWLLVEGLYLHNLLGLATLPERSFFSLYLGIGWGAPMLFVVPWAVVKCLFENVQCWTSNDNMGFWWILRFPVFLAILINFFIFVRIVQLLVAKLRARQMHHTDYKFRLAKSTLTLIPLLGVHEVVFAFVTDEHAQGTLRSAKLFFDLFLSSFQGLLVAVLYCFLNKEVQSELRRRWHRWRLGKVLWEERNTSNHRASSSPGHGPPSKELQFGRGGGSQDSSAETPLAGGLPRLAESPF
The target in assay [2] is T1, human glucagon receptor. The experiment in a line: Human Glucagon SPA Assay (binding of [125I]Glucagon-Cex). The note with it: membrane from chem-1 cells stably transfected with the human glucagon receptor, Ki by Cheng-Prusoff equation.

Each structure is given as a SMILES string.

`Cc1cc(C(Nc2ccc(C(=O)NCCC(=O)O)cn2)C2CCCC2)cc(C)c1-n1cc(C(F)(F)F)cn1` (single isomer, unassigned; isomer 2) [Example 171, 3-(6-((cyclooentyl(3,5-dimethyl-4-(4-(trifluoromethyl)-1H-pyrazol-1-yl)phenyl)methyl)amino)nicotinamido)propanoic acid, Isomer 2]: the Kb in assay [1] turned out to be 150 nM. Moreover, the Ki in assay [2] is 28 nM.
`O=C(O)CCNC(=O)c1ccc([C@H](CCC(F)(F)F)Nc2ccc(-n3cc(C(F)(F)F)cn3)nc2)cc1` (single isomer, unassigned; isomer 2) [Example 173, N-{4-[4,4,4-trifluoro-1-({6-[4-(trifluoromethyl)-1H-pyrazol-1-yl]pyridin-3-yl}amino)butyl]benzoyl}-beta-alanine, Isomer 2]: the Kb in assay [1] was 641 nM. The Ki in assay [2] was determined as 26.6 nM.
As to `CC1(C)CC([C@H](Nc2ccc(-n3cc(C4CC4)cn3)nc2)c2ccc(C(=O)NCCC(=O)O)cc2)C1` (single isomer, unassigned; isomer 2) [Example 175, N-{-4-[{[6-(4-cyclopropyl-1H-pyrazol-1-yl)pyridin-3-yl]amino}(3,3-dimethylcyclobutyl)methyl]benzoyl}-beta-alanine, Isomer 2], the Kb in assay [1] worked out at 10.5 nM. Besides, the Ki in assay [2] turned out to be 28.7 nM.
Taken in the same sequence, the figures for `CC(C)(C)[C@H](Nc1ccc(-n2cc(C(F)(F)F)cn2)nc1)c1ccc(C(=O)NCCC(=O)O)cc1` (single isomer, unassigned; isomer 2) [Example 180, 3-(4-(2,2-dimethyl-1-((6-(4-(trifluoromethyl)-1H-pyrazol-1-yl)pyridin-3-yl)amino)propyl)benzamido)propanoic acid, Isomer 2] were 45 nM and 10.3 nM.
Taken in the same sequence, the figures for `CC(C)(C)[C@H](Nc1ccc(-n2cnc(C(F)(F)F)c2)nc1)c1ccc(C(=O)NCCC(=O)O)cc1` (single isomer, unassigned; isomer 2) [Example 183, 3-(4-(2,2-dimethyl-1-((6-(4-(trifluoromethyl)-1H-imidazol-1-yl)pyridin-3-yl)amino)propyl)benzamido)propanoic acid, Isomer 2] were 154 nM and 53.5 nM.
With `Cc1nn(-c2ccc(N[C@H](c3ccc(C(=O)NCCC(=O)O)cc3)C3CCCC3)cn2)cc1Cl` (single isomer, unassigned; isomer 2) [Example 192, 3-(4-((6-(4-chloro-3-methyl-1H-pyrazol-1-yl)pyridin-3-ylamino)(cyclopentyl)methyl)benzamido)propanoic acid, Isomer 2], the Kb in assay [1] came to 88.5 nM. The same compound showed a Ki in assay [2] of 50.3 nM.
Taken in the same sequence, the figures for `CC(C)c1cn(-c2ccc(NC(c3ccc(C(=O)NCCC(=O)O)cc3)C3CCCC3)cn2)cn1` (stereo not drawn) [Example 123, 3-(4-(cyclopentyl(6-(4-isopropyl-1H-imidazol-1-yl)pyridin-3-ylamino)methyl)benzamido)propanoic acid] were 106 nM and 88.4 nM.
On the same counts, the results for `CCCC(Oc1ccc(-n2cc3cccc(C)c3n2)cc1)c1ccc(C(=O)NCCC(=O)O)cc1` (stereo not drawn) [Example 125, 3-(4-(1-(4-(7-methyl-2H-indazol-2-yl)phenoxy)butyl)benzamido)propanoic acid] are 144 nM and 98.2 nM.
In turn, `CCCC(Oc1ccc(-n2cc3ccc(C)cc3n2)cc1)c1ccc(C(=O)NCCC(=O)O)cc1` (stereo not drawn) [Example 126, 3-(4-(1-(4-(6-methyl-2H-indazol-2-yl)phenoxy)butyl)benzamido)propanoic acid] displayed a Kb in assay [1] of 212 nM. In assay [2], this compound yielded a Ki of 161 nM.
In assay [1], `CCCC(Oc1ccc(-n2cc3c(C)cccc3n2)cc1)c1ccc(C(=O)NCCC(=O)O)cc1` (stereo not drawn) [Example 127, 3-(4-(1-(4-(4-methyl-2H-indazol-2-yl)phenoxy)butyl)benzamido)propanoic acid] had a Kb of 202 nM. This compound came in with a Ki in assay [2] of 316 nM.
As to `CCCC(Oc1ccc(-n2cc3cc(C)ccc3n2)cc1)c1ccc(C(=O)NCCC(=O)O)cc1` (stereo not drawn) [Example 128, 3-(4-(1-(4-(5-methyl-2H-indazol-2-yl)phenoxy)butyl)benzamido)propanoic acid], in assay [1], the Kb is 268 nM. Besides, the Ki in assay [2] came to 208 nM.
As to `CCCC(Oc1cc(C)c(-n2cc(Cl)cn2)c(C)c1)c1ccc(C(=O)NCCC(=O)O)cc1` (stereo not drawn) [Example 130, (+\−)-3-(4-(1-(4-(4-chloro-1H-pyrazol-1-yl)-3,5-dimethylphenoxy)butyl)benzamido)propanoic acid], in assay [1], the Kb stood at 195 nM. The same compound showed a Ki in assay [2] of 116 nM.
Taken in the same sequence, the figures for `Cc1cc(OC(c2ccc(C(=O)NCCC(=O)O)cc2)C2CCCC2)cc(C)c1-n1cnc(C(F)(F)F)c1` (stereo not drawn) [Example 131, (+\−)-3-(4-(cyclopentyl(3,5-dimethyl-4-(4-(trifluoromethyl)-1H-imidazol-1-yl)phenoxy)methyl)benzamido)propanoic acid] were 247 nM and 51 nM.
Taken in the same sequence, the figures for `CCCC(Nc1ccc(-n2cc(-c3ccccc3)cn2)nc1)c1ccc(C(=O)NCCC(=O)O)cn1` (stereo not drawn) [Example 132, (+\−)-3-(6-(1-(6-(4-phenyl-1H-pyrazol-1-yl)pyridin-3-ylamino)butyl)nicotinamido)propanoic acid] were 153 nM and 132 nM.
On the same counts, the results for `CCCC(Oc1ccc(-n2cc3cccc(Cl)c3n2)cc1)c1ccc(C(=O)NCCC(=O)O)cc1` (stereo not drawn) [Example 139, (+\−)-3-(4-(1-(4-(7-chloro-2H-indazol-2-yl)phenoxy)butyl)benzamido)propanoic acid] are 147 nM and 354 nM.
`CCCC(Oc1ccc(-n2cc3cc(Cl)ccc3n2)cc1)c1ccc(C(=O)NCCC(=O)O)cc1` (stereo not drawn) [Example 140, (+\−)-3-(4-(1-(4-(5-chloro-2H-indazol-2-yl)phenoxy)butyl)benzamido)propanoic acid] gave a Kb in assay [1] of 154 nM. This compound also yielded a Ki in assay [2] of 62.8 nM.
With `CCCC(Oc1cc(C)c(-n2cnc(C(F)(F)F)c2)c(C)c1)c1ccc(C(=O)NCCC(=O)O)cc1` (stereo not drawn) [Example 141, (+\−)-3-(4-(1-(3,5-dimethyl-4-(4-(trifluoromethyl)-1H-imidazol-1-yl)phenoxy)butyl)benzamido)propanoic acid], in assay [1], the Kb was 586 nM. The Ki in assay [2] came out at 89.5 nM.
Taken in the same sequence, the figures for `CCCC(Oc1cc(C)c(-n2cc(C3CC3)cn2)c(C)c1)c1ccc(C(=O)NCCC(=O)O)cc1` (stereo not drawn) [Example 144, (+\−)-3-(4-(1-(4-(4-cyclopropyl-1H-pyrazol-1-yl)-3,5-dimethylphenoxy)butyl)benzamido)propanoic acid] were 174 nM and 62.6 nM.
On the same counts, the results for `CCCC(Oc1cc(C)c(-n2cc(C(F)(F)F)nn2)c(C)c1)c1ccc(C(=O)NCCC(=O)O)cc1` (stereo not drawn) [Example 148, (+\−)-3-(4-(1-(3,5-dimethyl-4-(4-(trifluoromethyl)-1H-1,2,3-triazol-1-yl)phenoxy)butyl)benzamido)propanoic acid] are 423 nM and 125 nM.
On the same counts, the results for `CCCC(Oc1ccc(-n2cc(C(F)(F)F)cn2)cc1C)c1ccc(C(=O)NCCC(=O)O)cc1` (stereo not drawn) [Example 159, 3-(4-(1-(2-methyl-4-(4-(trifluoromethyl)-1H-pyrazol-1-yl)phenoxy)butyl)benzamido)propanoic acid] are 730 nM and 315 nM.
In assay [1], `Cc1cc([C@@H](CC(C)C)Nc2ccc(C(=O)NCCC(=O)O)cn2)cc(C)c1-n1cc(C(F)(F)F)cn1` [Example 168, (R)-3-(6-((1-(3,5-dimethyl-4-(4-(trifluoromethyl)-1H-pyrazol-1-yl)phenyl)-3-methylbutyl)amino)nicotinamido)propanoic acid] yielded a Kb of 185 nM. For the same compound, the affinity in assay [2] corresponds to a Ki of 27.4 nM.
On to `Cc1cc([C@H](CC(C)C)Nc2ccc(C(=O)NCCC(=O)O)cn2)cc(C)c1-n1cc(C(F)(F)F)cn1` [Example 169, (S)-3-(6-((1-(3,5-dimethyl-4-(4-(trifluoromethyl)-1H-pyrazol-1-yl)phenyl)-3-methylbutyl)amino)nicotinamido)propanoic acid], for which the Kb in assay [1] turned out to be 1150 nM. The same compound showed an inhibition constant (Ki) in assay [2] of 193 nM.
Taken in the same sequence, the figures for `CCC[C@H](Oc1cc(C)c(-n2cc3ccccc3n2)c(C)c1)c1ccc(C(=O)NCCC(=O)O)cc1` [Example 187, (S)-3-(4-(1-(4-(2H-indazol-2-yl)-3,5-dimethylphenoxy)butyl)benzamido)propanoic acid] were 167 nM and 47.8 nM.
`CC1(C)CC(C(Nc2ccc(-n3cnc(C(F)(F)F)c3)nc2)c2ccc(C(=O)NCCC(=O)O)cc2)C1` (stereo not drawn) [Example 188, (+\−)-3-(4-((3,3-dimethylcyclobutyl)(6-(4-(trifluoromethyl)-1H-imidazol-1-yl)pyridin-3-ylamino)methyl)benzamido)propanoic acid] returned a Kb in assay [1] of 106 nM. This compound returned a Ki in assay [2] of 42.2 nM.
On the same counts, the results for `CCCC(Oc1cc(C)c(-n2cc3ccccc3n2)c(C)c1)c1ccc(C(=O)NCCC(=O)O)cc1` (stereo not drawn) [Example 189, (+\−)-3-(4-(1-(4-(2H-indazol-2-yl)-3,5-dimethylphenoxy)butyl)benzamido)propanoic acid] are 370 nM and 109 nM.
The compound `CCCC(Nc1ccc(C(=O)NCCC(=O)O)cn1)c1ccc(-n2cc(C(F)(F)F)cn2)nc1` (stereo not drawn) [Example 190, (+\−)-3-(6-(1-(6-(4-(trifluoromethyl)-1H-pyrazol-1-yl)pyridin-3-yl)butylamino)nicotinamido)propanoic acid] came in with a Kb in assay [1] of 978 nM. The compound further came in with a Ki in assay [2] of 399 nM.
Compound `O=C(O)CCNC(=O)c1ccc(C(Nc2cnc(-n3cnc(C(F)(F)F)c3)nc2)C2CCCC2)cc1` (stereo not drawn) [Example 193, 3-(4-(cyclopentyl(2-(4-(trifluoromethyl)-1H-imidazol-1-yl)pyrimidin-5-ylamino)methyl)benzamido)propanoic acid] returned a Kb in assay [1] of 84.1 nM. The compound further returned a Ki in assay [2] of 44.7 nM.
